Measurements: PubChem BioAssay AID256 (DTP/NCI, 2004)
Inconclusive results and toxic doses are left out. The calls were made as follows: active = survival T/C of 150% or more; inactive = T/C below 125% in these data.

System: CD2F1 mice, L1210 leukemia ip, survival T/C
Test: NCI In Vivo Anticancer Drug Screen. Data for tumor model L1210 Leukemia (intraperitoneal) in CD2F1 (CDF1) mice
Details: endpoint: mean survival time, higher = longer survival
In short: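 Read-out first: treated-group measurement over vehicle-control measurement, expressed as a ratio. Animals bore a transplanted tumor line and were dosed with compound or vehicle.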

[1] = dose: 100.0 mg/kg/injection, schedule: Q01DX001 (ip), vehicle: saline with Tween-80
[2] = dose: 200.0 mg/kg/injection, schedule: Q01DX001 (ip), vehicle: saline with Tween-80
[3] = dose: 400.0 mg/kg/injection, schedule: Q01DX001 (ip), vehicle: saline with Tween-80
[4] = dose: 100.0 mg/kg/injection, schedule: Q04DX003 (ip), vehicle: saline with Tween-80
[5] = dose: 200.0 mg/kg/injection, schedule: Q04DX003 (ip), vehicle: saline with Tween-80
[6] = dose: 400.0 mg/kg/injection, schedule: Q04DX003 (ip), vehicle: saline with Tween-80
[7] = dose: 100.0 mg/kg/injection, schedule: Q01DX009 (ip), vehicle: saline with Tween-80
[8] = dose: 400.0 mg/kg/injection, schedule: Q01DX009 (ip), vehicle: saline with Tween-80

Measured: T/C

N#Cc1ncc(-c2ccccc2)nc1C#N
inactive: [1] 91 % of control | [2] 92 % of control | [3] 105 % of control

NC(=O)NN=C1CCC(CC2CCCCC2)CC1 (stereo not drawn)
inactive: [4] 112 % of control

O=NN(CCCl)C(=O)NCCc1cccc[n+]1[O-]
active: dose: 25.0 mg/kg/injection, schedule: Q01DX001 (ip), vehicle: water 173 % of control | dose: 50.0 mg/kg/injection, schedule: Q01DX001 (ip), vehicle: water 309 % of control | dose: 100.0 mg/kg/injection, schedule: Q01DX001 (ip), vehicle: water 240 % of control
inactive: dose: 1.56 mg/kg/injection, schedule: Q01DX001 (ip), vehicle: water 108 % of control | dose: 3.13 mg/kg/injection, schedule: Q01DX001 (ip), vehicle: water 116 % of control | dose: 6.25 mg/kg/injection, schedule: Q01DX001 (ip), vehicle: water 121 % of control

COc1ccc(-c2nnc(-c3ccc(OC)c(Cl)c3)nn2)cc1Cl
inactive: [4] 93 % of control | [5] 86 % of control

Clc1ccc(N=Cc2ccc3c(c2)OCO3)cc1
inactive: dose: 100.0 mg/kg/injection, schedule: Q04DX003 (ip), vehicle: other 91 % of control | dose: 200.0 mg/kg/injection, schedule: Q04DX003 (ip), vehicle: other 96 % of control | dose: 400.0 mg/kg/injection, schedule: Q04DX003 (ip), vehicle: other 100 % of control

O=C(c1ccccc1)C(Sc1ccccc1)c1ccccc1 (stereo not drawn)
inactive: [4] 97 % of control | [5] 101 % of control | [6] 97 % of control

CCC(=O)OCCn1c2ccccc2c2c(C)c3cnccc3c(C)c21
inactive: [7] 110 % of control | [4] 102 % of control | [5] 107 % of control | [6] 123 % of control
active: [8] 154 % of control

Cc1c(O)c2c(c(O)c1Cc1ccc(CN)cc1)C(=O)c1ccccc1C2=O
inactive: dose: 1.56 mg/kg/injection, schedule: Q01DX009 (ip), vehicle: water 103 % of control | dose: 3.13 mg/kg/injection, schedule: Q01DX009 (ip), vehicle: water 101 % of control | dose: 6.25 mg/kg/injection, schedule: Q01DX009 (ip), vehicle: water 95 % of control | dose: 12.5 mg/kg/injection, schedule: Q01DX009 (ip), vehicle: water 103 % of control | dose: 25.0 mg/kg/injection, schedule: Q01DX009 (ip), vehicle: water 87 % of control

COc1ccc(C(C)C(OC(=O)c2ccc([N+](=O)[O-])cc2)c2ccccc2)cc1 (stereo not drawn)
inactive: [7] 94 % of control | [4] 88 % of control | dose: 200.0 mg/kg/injection, schedule: Q01DX009 (ip), vehicle: saline with Tween-80 88 % of control | [5] 97 % of control | [8] 103 % of control | [6] 94 % of control

Cc1ccccc1N=Nc1ccccc1
inactive: [1] 104 % of control | [2] 96 % of control | [3] 101 % of control

CSc1nc(=O)[nH]c2c1c1c(N)ncnc1n2C1OC(CO)C(O)C1O (stereo not drawn)
inactive: dose: 12.5 mg/kg/injection, schedule: Q01DX005 (ip), vehicle: distilled water + Tween-80 104 % of control | dose: 25.0 mg/kg/injection, schedule: Q01DX005 (ip), vehicle: distilled water + Tween-80 97 % of control | dose: 50.0 mg/kg/injection, schedule: Q01DX005 (ip), vehicle: distilled water + Tween-80 104 % of control | dose: 100.0 mg/kg/injection, schedule: Q01DX005 (ip), vehicle: distilled water + Tween-80 100 % of control | dose: 200.0 mg/kg/injection, schedule: Q01DX005 (ip), vehicle: distilled water + Tween-80 104 % of control

CCOC(=O)C(CO)NC(=O)C[NH-].CCOC(=O)C(CO)NC(=O)C[NH-].[Cl][Pt+2][Cl] (stereo not drawn)
inactive: dose: 100.0 mg/kg/injection, schedule: Q04DX003 (ip), vehicle: saline 111 % of control | dose: 200.0 mg/kg/injection, schedule: Q04DX003 (ip), vehicle: saline 111 % of control | dose: 400.0 mg/kg/injection, schedule: Q04DX003 (ip), vehicle: saline 114 % of control

O=C1c2ccccc2C(=O)N1CCS(=O)(=O)O
inactive: dose: 100.0 mg/kg/injection, schedule: Q04DX002 (ip), vehicle: saline with Tween-80 97 % of control | dose: 200.0 mg/kg/injection, schedule: Q04DX002 (ip), vehicle: saline with Tween-80 94 % of control | dose: 400.0 mg/kg/injection, schedule: Q04DX002 (ip), vehicle: saline with Tween-80 94 % of control
